Laboratory results taken from PMC12177571, “Glycosidase-activated prodrugs of a cytotoxic iron chelator for targeted cancer therapy” (RSC Medicinal Chemistry, 2025).

Experiments:
A549 cells = experiment: MTT cell viability assay, A549 cells; type: cell-based; settings: Homo sapiens, 72 h incubation, mean and SD of three independent experiments, read-out: IC50 against A549
Method: (§1) Next, the cytotoxicity of the prodrugs was assessed in the human lung cancer (A549) and human ovarian cancer (OvCar-3) cell lines: overexpressing β-glucosidase, and, overexpressing both β-glucosidase and β-galactosidase, respectively.[40,41] For this, a standard MTT assay was employed to generate the proliferation profiles (cf. ESI ^† Fig. S1–S5) and allowed us to calculate the IC50 values for each compound. GM5756 fibroblast cells were included as non-cancerous control.
(§2) Cell culture. Ovcar-3 cells were maintained in RPMI-1640 medium (Invitrogen), A549 cells were maintained in high glucose (4.5 g/L) Dulbecco’s Modified Eagle’s medium (Invitrogen. Alle employed culture media were supplemented with 10% fetal bovine serum (Gibco), 2% penicillin/streptomycin (Sigma Aldrich), 1%GlutaMAX™-I (100x, Gibco), and 1% sodium pyruvate (100 mM, Gibco).
(§3) Cells were kept under a humidified atmosphere of 10% CO2 and 90% air at 37°C. Cells were split when they reached 90% confluency. All employed cell lines were sourced from the German Collection of Microorganisms and Cell Cultures (Leibnitz Institute, DSMZ).
(§4) Cell viability studies and MTT assays. Cells were harvested and plated on a 96-well plate in 100 µL growth medium at a density of 1500 cells per well. The cells were left to grow for 24 h at 37°C under a humidified atmosphere with 10% CO2. The next day, 100 µL of growth medium containing appropriate concentrations of the investigated compound were added to each well. As a control, the first row of wells was treated with 100 µL medium containing only the vehicle (1% DMSO); all wells contained a final concentration of 0.5% DMSO for the duration of the treatment. After incubation with the compound for 72 h, 50 µL of MTT solution (2.5 mg/mL 3-(4,5-dimethylthiazol-2-yl)-2,5-diphenyltetrazolium bromide dye in PBS buffer) was added to each well. After an additional incubation for 2 h, the supernatant was aspired off and 200 µL of DMSO was added to each well to solubilize the precipitated formazan dye. The produced formazan dye was quantified by measuring the optical density of the solution at 550 nm with a Tecan Infinite M Nano+ plate reader. A baseline correction was performed by subtracting a reference absorbance at 620 nm for each well. From the mean of the corrected absorbances for each set of equivalent wells, a dose-response curve was produced, which was then normalized to the wells containing untreated cells to allow for plate-to-plate comparison. The resulting dose-response curves were subjected to non-linear regression analysis performed in Microsoft Excel (version 16.64) to determine IC50 via the Hill-Langmuir model. Data is shown as the mean of three replicate experiments and error bars represent the standard deviation at each datum point.

OvCar-3 cells = experiment: MTT cell viability assay, OvCar-3 cells; type: cell-based; settings: Homo sapiens, 72 h incubation, mean and SD of three independent experiments, read-out: IC50 against OvCar-3
Method: as §1, §2, §3, §4

GM5756 fibroblast cells = experiment: MTT cell viability assay, GM5756 fibroblast cells (non-cancerous control); type: cell-based; settings: 72 h incubation, mean and SD of three independent experiments, read-out: IC50 against GM5756
Method: as §1, §2, §3, §4

β-galactosidase = target: T1, β-galactosidase (Escherichia coli, UniProt P00722); experiment: AIE fluorescence study of release of 1 with β-galactosidase; type: biochemical, e.coli; settings: free chelator 1 as reference, 20 μM, enzyme not specified
T1 construct: purchased Roche; host or cells: E. coli overproducer
Method: The AIE fluorescence properties of 1 were used as a means of supporting the above conclusion. The emission of all glycosylated prodrugs is suppressed. Thus, solutions of each prodrug were prepared in water, and three enzyme units of β-galactosidase or β-glucosidase, as appropriate, were added to the prodrugs. Each mixture was then analysed by fluorescence spectroscopy after 24 h of incubation. […] This finding is consistent with a lack of enzymatic activation.
Fig. 4 Relative emission intensity at 480 nm (*for 3b at 420 nm) of evaluated compounds at 20 μM before and after incubation with 3 U of the appropriate enzyme. TEXT PRINTED IN THE PICTURE: 1: Relative Emission 480 nm: 100% (Before incubation); Relative Emission 480 nm: 100% (After 24 h incubation) | 2a: Relative Emission 480 nm: 0% (Before incubation); Relative Emission 480 nm: 0% (After 24 h incubation) | 2b: Relative Emission 480 nm: 0% (Before incubation); Relative Emission 480 nm: 1% (After 24 h incubation) | 3a: Relative Emission 480 nm: 1% (Before incubation); Relative Emission 480 nm: 33% (After 24 h incubation) | 3b*: Relative Emission 480 nm: 1% (Before incubation); Relative Emission 480 nm: 11% (After 24 h incubation) […]
Figure S25: Fluorescence spectra for excitation (blue) and emission (green) of 1 at a concentration of 20 μM in water.
Figure S26: Fluorescence spectra for excitation (blue) and emission (green) of 2a at a concentration of 20 μM in water before (left) and after (right) incubation with 3 units of b-galactosidase for 24 h. […]
Figure S28: Fluorescence spectra for excitation (blue) and emission (green) of 3a at a concentration of 20 μM in water before (left) and after (right) incubation with 3 units of β-galactosidase for 24 h. […]

[1] = Fe(III) binding study by UV-vis spectroscopy; settings: 30 μM compound, excess FeCl3 (50 μM), methanol
Method: With the prodrugs in hand, binding studies were carried out using UV-vis spectroscopy; this was done to confirm the Fe(III) binding ability of all new compounds. […] To evaluate whether 2a, 2b, 3a, and 3b were chelating Fe(III), each prodrug was similarly dissolved in a solution containing excess FeCl3.
Fig. 2 UV-vis absorption spectra for prodrugs 2a/b and 3a/b as well as 1 at a concentration of 30 μM with an excess of FeCl3 as Fe(III) source (50 μM) in methanol.
UV-vis spectra were recorded in methanol containing the indicated ligand or prodrug at a concentration of 30 µM and as appropriate Fe(III) at a concentration of 50 µM. A stock solution of FeCl3 in DMSO was used as source of Fe(III) and ligands were added from a […] stock solution in DMSO. All samples contained a final concentration of <0.2% DMSO.
Figure S7: UV-vis absorption spectra of 1, Fe(III), and 1 + Fe(III). The graph for 1 + Fe(III) (Numerically) was constructed by numerically adding the respective signals of Fe(III) and 1 to show what graph could be expected if the two species were in the same solution without interacting.
Figure S8: UV-vis absorption spectra of 2a, Fe(III), and 2a + Fe(III). The graph for 2a + Fe(III) (Numerically) was constructed by numerically adding the respective signals of Fe(III) and 2a to show what graph could be expected if the two species were in the same solution without interacting. […]

T1 sequence (P00722 2-1024): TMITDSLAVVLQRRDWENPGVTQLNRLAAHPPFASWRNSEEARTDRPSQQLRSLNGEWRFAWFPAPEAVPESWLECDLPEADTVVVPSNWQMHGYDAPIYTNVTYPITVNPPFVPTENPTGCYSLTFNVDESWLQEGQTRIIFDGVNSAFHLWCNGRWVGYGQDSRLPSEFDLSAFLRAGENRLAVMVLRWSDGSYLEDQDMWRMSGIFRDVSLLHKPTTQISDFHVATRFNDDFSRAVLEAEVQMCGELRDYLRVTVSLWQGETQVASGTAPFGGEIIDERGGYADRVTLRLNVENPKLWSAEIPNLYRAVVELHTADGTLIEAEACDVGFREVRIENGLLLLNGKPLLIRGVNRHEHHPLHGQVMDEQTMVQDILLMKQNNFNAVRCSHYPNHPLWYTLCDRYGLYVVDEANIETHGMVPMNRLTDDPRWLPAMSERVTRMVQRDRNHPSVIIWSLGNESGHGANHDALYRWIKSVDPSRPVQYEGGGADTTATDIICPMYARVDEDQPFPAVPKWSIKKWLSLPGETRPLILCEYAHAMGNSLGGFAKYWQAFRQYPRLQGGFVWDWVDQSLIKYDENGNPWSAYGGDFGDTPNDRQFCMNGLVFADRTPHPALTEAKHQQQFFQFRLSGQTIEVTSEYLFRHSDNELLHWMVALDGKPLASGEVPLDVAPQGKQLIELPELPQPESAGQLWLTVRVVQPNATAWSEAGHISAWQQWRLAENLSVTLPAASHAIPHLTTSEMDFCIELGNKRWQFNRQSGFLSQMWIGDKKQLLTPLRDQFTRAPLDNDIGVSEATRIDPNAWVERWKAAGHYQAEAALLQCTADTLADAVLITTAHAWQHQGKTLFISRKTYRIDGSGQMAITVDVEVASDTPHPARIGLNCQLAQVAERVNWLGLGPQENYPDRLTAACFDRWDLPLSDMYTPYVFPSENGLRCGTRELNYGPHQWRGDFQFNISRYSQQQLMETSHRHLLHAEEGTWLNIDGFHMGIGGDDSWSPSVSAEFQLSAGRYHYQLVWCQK

## Oc1ccccc1-c1nc(-c2ccccc2O)n(-c2ccccc2)n1 [compound 1, reference compound]
A549 cells
  IC50: 3.1 ± 0.4 µM
OvCar-3 cells
  IC50: 3.9 ± 1.6 µM
GM5756 fibroblast cells
  IC50: 2700 ± 100 nM
β-galactosidase; after 24 h incubation
  Relative emission intensity at 480 nm: 100%
β-galactosidase; before incubation
  Relative emission intensity at 480 nm: 100%
[1]
  Absorbance at 510 nm (Fe(III) chelation band): characteristic absorption band at 510 nm
